# Columns and labels:
# Experiment in all cases: KINOMEscan competition binding
# Conditions in all cases: compound 1.0 µM
# MAP4K4 (human) = MAP4K4 (human) (UniProt O95819)
# FGR (human) = FGR (human) (UniProt P09769)
# CDK18 (human) = CDK18 (human) (UniProt Q07002)
# PRKG2 (human) = PRKG2 (human) (UniProt Q13237)
# DCLK1 (human) = DCLK1 (human) (UniProt O15075)
# TNK2 (human) = TNK2 (human) (UniProt Q07912)
# MAPK1 (human) = MAPK1 (human) (UniProt P28482)
# PDGFRB (human) = PDGFRB (human) (UniProt P09619)
# AKT3 (human) = AKT3 (human) (UniProt Q9Y243)
# NEK9 (human) = NEK9 (human) (UniProt Q8TD19)
# RIPK1 (human) = RIPK1 (human) (UniProt Q13546)
# MAPK7 (human) = MAPK7 (human) (UniProt Q13164)
# HIPK1 (human) = HIPK1 (human) (UniProt Q86Z02)
# PAK3 (human) = PAK3 (human) (UniProt O75914)
# TSSK1B (human) = TSSK1B (human) (UniProt Q9BXA7)
# PRKCD (human) = PRKCD (human) (UniProt Q05655)
# ULK1 (human) = ULK1 (human) (UniProt O75385)
# GSK3B (human) = GSK3B (human) (UniProt P49841)
# PRKD1 (human) = PRKD1 (human) (UniProt Q15139)
# HUNK (human) = HUNK (human) (UniProt P57058)
# CDKL2 (human) = CDKL2 (human) (UniProt Q92772)
# MAP3K7 (human) = MAP3K7 (human) (UniProt O43318)
# [1] = tested on: EGFR (human), P00533 [L858R]
# NIM1 (human) = NIM1 (human) (UniProt Q8IY84)
# IRAK1 (human) = IRAK1 (human) (UniProt P51617)
# MAP3K2 (human) = MAP3K2 (human) (UniProt Q9Y2U5)
# MAP3K3 (human) = MAP3K3 (human) (UniProt Q99759)
# EPHA6 (human) = EPHA6 (human) (UniProt Q9UF33)
# MAP4K3 (human) = MAP4K3 (human) (UniProt Q8IVH8)
# NEK6 (human) = NEK6 (human) (UniProt Q9HC98)
# [2] = tested on: FLT3 (human), P36888 [N841I]
# TNK1 (human) = TNK1 (human) (UniProt Q13470)
# FLT4 (human) = FLT4 (human) (UniProt P35916)
# RIPK4 (human) = RIPK4 (human) (UniProt P57078)
# CDK16 (human) = CDK16 (human) (UniProt Q00536)
# MAP4K5 (human) = MAP4K5 (human) (UniProt Q9Y4K4)
# AAK1 (human) = AAK1 (human) (UniProt Q2M2I8)
# OXSR1 (human) = OXSR1 (human) (UniProt O95747)
# STK35 (human) = STK35 (human) (UniProt Q8TDR2)
# ACVR2B (human) = ACVR2B (human) (UniProt Q13705)
# ACVR2A (human) = ACVR2A (human) (UniProt P27037)
# Chain of ACVR2A (human) (P27037 whole entry, looked up): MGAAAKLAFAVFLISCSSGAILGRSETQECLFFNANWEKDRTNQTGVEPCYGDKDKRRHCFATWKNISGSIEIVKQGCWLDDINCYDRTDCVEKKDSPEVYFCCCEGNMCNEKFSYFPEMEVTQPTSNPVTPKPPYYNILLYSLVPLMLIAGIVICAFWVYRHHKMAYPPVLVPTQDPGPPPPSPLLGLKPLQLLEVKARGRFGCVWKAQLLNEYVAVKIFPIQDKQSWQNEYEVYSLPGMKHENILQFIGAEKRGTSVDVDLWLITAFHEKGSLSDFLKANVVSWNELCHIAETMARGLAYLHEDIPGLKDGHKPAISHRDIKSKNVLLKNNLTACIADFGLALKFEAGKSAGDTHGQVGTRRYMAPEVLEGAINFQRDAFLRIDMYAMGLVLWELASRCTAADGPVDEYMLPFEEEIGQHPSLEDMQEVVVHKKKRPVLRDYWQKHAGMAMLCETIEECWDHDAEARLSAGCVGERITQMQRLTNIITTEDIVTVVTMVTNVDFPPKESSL
# Chain of PDGFRB (human) (P09619 whole entry, looked up): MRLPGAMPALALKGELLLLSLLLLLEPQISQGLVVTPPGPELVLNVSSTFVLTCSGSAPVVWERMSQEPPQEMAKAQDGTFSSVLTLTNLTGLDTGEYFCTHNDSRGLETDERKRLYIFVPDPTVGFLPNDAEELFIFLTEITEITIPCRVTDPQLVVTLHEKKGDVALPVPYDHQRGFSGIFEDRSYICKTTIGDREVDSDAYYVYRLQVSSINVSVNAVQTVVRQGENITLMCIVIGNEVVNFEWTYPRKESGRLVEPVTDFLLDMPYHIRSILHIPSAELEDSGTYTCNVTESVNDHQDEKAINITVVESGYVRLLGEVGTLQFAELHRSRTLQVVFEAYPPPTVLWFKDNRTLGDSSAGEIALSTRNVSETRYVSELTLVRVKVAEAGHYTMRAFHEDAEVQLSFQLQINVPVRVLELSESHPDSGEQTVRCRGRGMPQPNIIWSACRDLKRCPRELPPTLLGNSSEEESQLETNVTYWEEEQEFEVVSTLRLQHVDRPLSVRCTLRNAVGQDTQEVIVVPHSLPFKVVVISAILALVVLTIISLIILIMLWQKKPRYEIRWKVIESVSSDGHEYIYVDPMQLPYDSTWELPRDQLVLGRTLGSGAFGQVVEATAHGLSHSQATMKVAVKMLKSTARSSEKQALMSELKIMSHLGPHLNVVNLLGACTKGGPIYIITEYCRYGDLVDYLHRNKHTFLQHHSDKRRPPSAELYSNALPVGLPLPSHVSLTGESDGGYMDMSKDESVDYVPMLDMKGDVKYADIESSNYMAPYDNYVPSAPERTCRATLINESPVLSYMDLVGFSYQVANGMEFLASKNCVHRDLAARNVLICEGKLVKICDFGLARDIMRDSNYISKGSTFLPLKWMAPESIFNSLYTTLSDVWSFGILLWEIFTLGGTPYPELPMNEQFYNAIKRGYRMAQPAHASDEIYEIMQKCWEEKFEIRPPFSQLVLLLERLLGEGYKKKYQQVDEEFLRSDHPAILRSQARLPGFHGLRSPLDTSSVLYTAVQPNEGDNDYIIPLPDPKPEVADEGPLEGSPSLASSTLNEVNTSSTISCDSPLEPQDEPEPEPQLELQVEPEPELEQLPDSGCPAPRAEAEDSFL
# Chain of ACVR2B (human) (Q13705 whole entry, looked up): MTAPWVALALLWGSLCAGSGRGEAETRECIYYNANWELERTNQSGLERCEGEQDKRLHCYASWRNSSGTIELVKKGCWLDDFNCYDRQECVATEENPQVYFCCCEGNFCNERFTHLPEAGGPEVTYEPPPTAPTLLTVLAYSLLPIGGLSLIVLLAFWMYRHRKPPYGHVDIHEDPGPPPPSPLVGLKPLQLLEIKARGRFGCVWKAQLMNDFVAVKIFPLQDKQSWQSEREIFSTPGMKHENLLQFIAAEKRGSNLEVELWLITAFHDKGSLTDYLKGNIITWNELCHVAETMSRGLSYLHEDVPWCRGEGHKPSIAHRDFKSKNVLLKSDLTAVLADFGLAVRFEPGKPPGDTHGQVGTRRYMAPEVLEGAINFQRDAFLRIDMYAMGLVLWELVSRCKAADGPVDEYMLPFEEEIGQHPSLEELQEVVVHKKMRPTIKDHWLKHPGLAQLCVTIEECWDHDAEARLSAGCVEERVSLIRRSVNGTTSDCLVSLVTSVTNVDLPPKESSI
# Chain of PRKG2 (human) (Q13237 whole entry, looked up): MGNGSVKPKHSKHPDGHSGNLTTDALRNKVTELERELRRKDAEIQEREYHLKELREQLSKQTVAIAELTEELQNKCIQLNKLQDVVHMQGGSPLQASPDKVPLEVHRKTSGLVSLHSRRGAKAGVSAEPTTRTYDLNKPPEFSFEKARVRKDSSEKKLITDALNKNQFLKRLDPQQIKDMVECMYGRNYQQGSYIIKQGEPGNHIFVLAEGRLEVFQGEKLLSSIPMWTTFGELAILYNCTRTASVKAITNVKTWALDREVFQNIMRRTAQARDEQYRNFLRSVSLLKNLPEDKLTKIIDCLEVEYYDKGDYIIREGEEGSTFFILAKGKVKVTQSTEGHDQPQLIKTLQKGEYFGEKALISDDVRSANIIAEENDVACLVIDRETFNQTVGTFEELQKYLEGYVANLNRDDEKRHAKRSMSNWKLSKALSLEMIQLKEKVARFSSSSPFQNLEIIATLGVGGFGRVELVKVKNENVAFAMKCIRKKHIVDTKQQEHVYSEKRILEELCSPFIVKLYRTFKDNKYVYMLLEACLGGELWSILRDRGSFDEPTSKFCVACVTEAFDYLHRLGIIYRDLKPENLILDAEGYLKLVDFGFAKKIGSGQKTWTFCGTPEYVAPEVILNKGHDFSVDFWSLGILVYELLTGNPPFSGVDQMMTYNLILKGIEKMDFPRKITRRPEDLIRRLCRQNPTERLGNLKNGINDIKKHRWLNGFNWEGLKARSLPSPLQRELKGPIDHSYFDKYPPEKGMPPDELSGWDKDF
# Chain of PRKCD (human) (Q05655 whole entry, looked up): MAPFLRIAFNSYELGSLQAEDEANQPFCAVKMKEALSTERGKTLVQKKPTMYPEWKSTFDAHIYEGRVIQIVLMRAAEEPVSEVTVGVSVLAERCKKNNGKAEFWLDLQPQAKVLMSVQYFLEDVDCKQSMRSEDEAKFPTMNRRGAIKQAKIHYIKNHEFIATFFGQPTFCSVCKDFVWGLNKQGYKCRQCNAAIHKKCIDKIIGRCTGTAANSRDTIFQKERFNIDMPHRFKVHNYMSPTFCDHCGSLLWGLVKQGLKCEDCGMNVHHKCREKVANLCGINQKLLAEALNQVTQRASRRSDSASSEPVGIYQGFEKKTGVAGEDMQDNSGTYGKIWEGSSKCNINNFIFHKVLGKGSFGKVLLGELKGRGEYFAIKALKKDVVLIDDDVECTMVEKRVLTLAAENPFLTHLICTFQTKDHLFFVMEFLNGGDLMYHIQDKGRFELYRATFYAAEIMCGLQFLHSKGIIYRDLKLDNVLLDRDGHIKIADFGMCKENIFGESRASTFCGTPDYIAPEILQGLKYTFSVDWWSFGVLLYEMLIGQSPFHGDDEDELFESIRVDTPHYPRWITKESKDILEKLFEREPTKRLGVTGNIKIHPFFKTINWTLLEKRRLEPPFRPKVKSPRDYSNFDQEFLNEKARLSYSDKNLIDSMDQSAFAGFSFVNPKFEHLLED
# Chain of RIPK4 (human) (P57078 whole entry, looked up): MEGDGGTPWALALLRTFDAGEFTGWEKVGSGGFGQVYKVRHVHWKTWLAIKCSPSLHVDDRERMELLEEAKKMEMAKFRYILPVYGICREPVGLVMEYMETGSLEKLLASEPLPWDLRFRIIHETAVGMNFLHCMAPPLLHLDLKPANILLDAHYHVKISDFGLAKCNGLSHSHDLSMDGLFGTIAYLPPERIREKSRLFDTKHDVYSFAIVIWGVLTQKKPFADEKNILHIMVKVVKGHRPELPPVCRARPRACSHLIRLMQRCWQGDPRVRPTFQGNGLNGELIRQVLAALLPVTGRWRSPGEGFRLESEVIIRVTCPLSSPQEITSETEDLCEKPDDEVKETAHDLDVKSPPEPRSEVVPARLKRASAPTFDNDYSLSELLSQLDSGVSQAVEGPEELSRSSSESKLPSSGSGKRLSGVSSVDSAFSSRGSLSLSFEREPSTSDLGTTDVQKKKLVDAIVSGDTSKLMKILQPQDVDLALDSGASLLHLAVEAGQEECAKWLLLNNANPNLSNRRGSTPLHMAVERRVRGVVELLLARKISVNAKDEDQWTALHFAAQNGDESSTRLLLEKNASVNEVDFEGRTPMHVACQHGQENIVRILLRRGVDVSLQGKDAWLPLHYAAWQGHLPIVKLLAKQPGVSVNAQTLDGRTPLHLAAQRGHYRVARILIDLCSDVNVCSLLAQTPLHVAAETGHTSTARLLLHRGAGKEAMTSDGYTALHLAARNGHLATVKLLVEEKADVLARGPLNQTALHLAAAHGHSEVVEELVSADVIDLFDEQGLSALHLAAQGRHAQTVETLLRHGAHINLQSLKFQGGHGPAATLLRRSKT
# Chain of TNK1 (human) (Q13470 whole entry, looked up): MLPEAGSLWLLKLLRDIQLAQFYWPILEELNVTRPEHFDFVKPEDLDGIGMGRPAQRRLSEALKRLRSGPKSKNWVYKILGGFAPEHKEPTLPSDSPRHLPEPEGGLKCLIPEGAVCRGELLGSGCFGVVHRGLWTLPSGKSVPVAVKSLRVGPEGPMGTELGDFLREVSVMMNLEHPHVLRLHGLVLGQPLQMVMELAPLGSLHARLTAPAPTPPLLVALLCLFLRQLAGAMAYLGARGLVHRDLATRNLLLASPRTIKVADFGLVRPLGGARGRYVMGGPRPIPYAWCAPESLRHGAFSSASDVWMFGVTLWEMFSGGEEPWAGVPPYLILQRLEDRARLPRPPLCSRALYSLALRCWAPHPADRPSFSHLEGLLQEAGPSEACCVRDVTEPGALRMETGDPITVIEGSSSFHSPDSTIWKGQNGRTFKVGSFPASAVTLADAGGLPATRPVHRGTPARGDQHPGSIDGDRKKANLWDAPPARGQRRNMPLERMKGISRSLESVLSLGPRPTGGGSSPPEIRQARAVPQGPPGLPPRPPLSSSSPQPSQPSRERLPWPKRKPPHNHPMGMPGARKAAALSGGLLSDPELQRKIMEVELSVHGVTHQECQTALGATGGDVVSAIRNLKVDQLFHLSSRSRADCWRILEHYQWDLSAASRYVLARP
structure (smiles),measurement,setting,value
Nc1cc(C(F)(F)F)c(-c2cc(N3CCOCC3)nc(N3CCOCC3)n2)cn1,inhibition of binding,MAP4K4 (human),9%
same,inhibition of binding,FGR (human),0%
same,inhibition of binding,CDK18 (human),34%
same,inhibition of binding,PRKG2 (human),0%
same,inhibition of binding,DCLK1 (human),7%
same,inhibition of binding,TNK2 (human),0%
same,inhibition of binding,MAPK1 (human),0%
same,inhibition of binding,PDGFRB (human),0%
same,inhibition of binding,AKT3 (human),0%
same,inhibition of binding,NEK9 (human),0%
same,inhibition of binding,RIPK1 (human),0%
same,inhibition of binding,MAPK7 (human),0%
same,inhibition of binding,HIPK1 (human),0%
same,inhibition of binding,PAK3 (human),0%
same,inhibition of binding,TSSK1B (human),5%
same,inhibition of binding,PRKCD (human),4%
same,inhibition of binding,ULK1 (human),0%
same,inhibition of binding,GSK3B (human),0%
same,inhibition of binding,PRKD1 (human),36%
same,inhibition of binding,HUNK (human),18%
same,inhibition of binding,CDKL2 (human),0%
same,inhibition of binding,MAP3K7 (human),5%
same,inhibition of binding,[1],16%
same,inhibition of binding,NIM1 (human),0%
same,inhibition of binding,IRAK1 (human),12%
same,inhibition of binding,MAP3K2 (human),0%
same,inhibition of binding,MAP3K3 (human),0%
same,inhibition of binding,EPHA6 (human),3%
same,inhibition of binding,MAP4K3 (human),0%
same,inhibition of binding,NEK6 (human),0%
same,inhibition of binding,[2],6%
same,inhibition of binding,TNK1 (human),10%
same,inhibition of binding,FLT4 (human),3%
same,inhibition of binding,RIPK4 (human),0%
same,inhibition of binding,CDK16 (human),0%
same,inhibition of binding,MAP4K5 (human),0%
same,inhibition of binding,AAK1 (human),0%
same,inhibition of binding,OXSR1 (human),17%
same,inhibition of binding,STK35 (human),0%
same,inhibition of binding,ACVR2B (human),0%
same,inhibition of binding,ACVR2A (human),5%
